# Measurements published in article PMC3433420 (PLoS ONE, 2012).
# Tests used:
# Test in all cases: In-house protein microarrays (with or without 5 mM DTT), protein named per line
# Type in all cases: binding
# [1] = molecular target: T1, SH2 and PTB domains (Homo sapiens, UniProt P16885); settings: array fabrication # 39329
# T1 construct: thioredoxin; made in house; host or cells: BL21(DE3)pLysS E. coli
# T1 sequence (P16885 1-1265): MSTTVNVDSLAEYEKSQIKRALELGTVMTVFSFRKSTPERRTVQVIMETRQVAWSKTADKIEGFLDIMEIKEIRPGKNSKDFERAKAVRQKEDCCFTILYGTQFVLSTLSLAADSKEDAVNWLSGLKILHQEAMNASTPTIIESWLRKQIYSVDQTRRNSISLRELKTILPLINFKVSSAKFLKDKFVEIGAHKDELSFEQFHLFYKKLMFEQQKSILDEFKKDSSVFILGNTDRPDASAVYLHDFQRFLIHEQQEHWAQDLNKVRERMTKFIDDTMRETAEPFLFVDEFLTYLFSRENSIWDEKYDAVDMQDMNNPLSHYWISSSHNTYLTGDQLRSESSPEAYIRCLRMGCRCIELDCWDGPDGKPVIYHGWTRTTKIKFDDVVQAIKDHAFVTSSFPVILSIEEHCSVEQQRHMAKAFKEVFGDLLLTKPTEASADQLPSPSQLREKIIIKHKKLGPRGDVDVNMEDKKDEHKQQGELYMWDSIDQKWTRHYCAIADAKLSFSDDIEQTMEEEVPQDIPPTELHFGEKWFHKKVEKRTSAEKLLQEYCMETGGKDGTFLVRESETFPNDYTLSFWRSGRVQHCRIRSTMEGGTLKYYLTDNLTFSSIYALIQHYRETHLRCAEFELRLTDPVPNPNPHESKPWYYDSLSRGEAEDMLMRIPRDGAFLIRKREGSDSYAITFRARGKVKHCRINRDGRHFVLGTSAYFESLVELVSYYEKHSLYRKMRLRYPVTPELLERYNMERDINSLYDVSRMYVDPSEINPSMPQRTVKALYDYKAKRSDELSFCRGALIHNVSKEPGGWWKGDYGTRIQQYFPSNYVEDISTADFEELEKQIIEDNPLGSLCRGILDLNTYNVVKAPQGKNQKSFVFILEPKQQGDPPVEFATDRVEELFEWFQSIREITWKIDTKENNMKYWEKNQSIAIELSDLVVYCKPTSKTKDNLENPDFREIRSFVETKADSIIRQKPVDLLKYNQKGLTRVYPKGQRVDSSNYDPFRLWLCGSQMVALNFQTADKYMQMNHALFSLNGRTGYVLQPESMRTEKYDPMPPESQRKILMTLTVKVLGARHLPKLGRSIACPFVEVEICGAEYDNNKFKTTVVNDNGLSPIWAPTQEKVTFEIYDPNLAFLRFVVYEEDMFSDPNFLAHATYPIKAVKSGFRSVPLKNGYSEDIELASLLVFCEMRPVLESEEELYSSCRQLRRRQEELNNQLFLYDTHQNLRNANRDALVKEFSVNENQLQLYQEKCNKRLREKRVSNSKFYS
# In short: (§1)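 KD values come from rhodamine fluorescence of duplicate spots after subtraction of a thioredoxin control. Domains were printed at ~40 µM on aldehyde slides, blocked 1 h at room temperature in pH 7.8 HEPES/KCl buffer with 5 mM DTT and 1% BSA, then peptide-probed.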
# [2] = molecular target: T2, SH2 and PTB domains (Homo sapiens, UniProt P07947); settings: protein YES1, array fabrication # 39329
# T2 construct: thioredoxin; made in house; host or cells: BL21(DE3)pLysS E. coli
# In short: as §1
# [3] = molecular target: T3, SH2 and PTB domains (Homo sapiens, UniProt P43405); settings: array fabrication # 39329
# T3 construct: thioredoxin; made in house; host or cells: BL21(DE3)pLysS E. coli
# In short: as §1
# [4] = molecular target: T4, SH2 and PTB domains (Homo sapiens, UniProt O43639); settings: protein NCK2, array fabrication # 39329
# T4 construct: thioredoxin; made in house; host or cells: BL21(DE3)pLysS E. coli
# In short: as §1
# [5] = molecular target: T5, SH2 and PTB domains (Homo sapiens, UniProt P12931); settings: protein SRC
# T5 construct: thioredoxin; made in house; host or cells: BL21(DE3)pLysS E. coli
# In short: as §1
# [6] = molecular target: T6, SH2 and PTB domains (Homo sapiens, UniProt P51451); settings: protein BLK
# T6 construct: thioredoxin; made in house; host or cells: BL21(DE3)pLysS E. coli
# In short: as §1
# [7] = molecular target: T7, SH2 and PTB domains (Homo sapiens, UniProt Q9BRG2); settings: protein SH2D3A, array fabrication # 39329
# T7 construct: thioredoxin; made in house; host or cells: BL21(DE3)pLysS E. coli
# In short: as §1
# [8] = molecular target: T8, SH2 and PTB domains (Homo sapiens, UniProt O00459); settings: protein PIK3R2-N, array fabrication # 39329
# T8 construct: thioredoxin; made in house; host or cells: BL21(DE3)pLysS E. coli
# In short: as §1
# [9] = PM assay replicate # 39336, array fabrication # 39329
# [10] = PM assay replicate # 39337, array fabrication # 39329
# [11] = PM assay replicate # 39603, array fabrication # 39392
# T5 sequence (P12931 whole entry, the tested form may be a part): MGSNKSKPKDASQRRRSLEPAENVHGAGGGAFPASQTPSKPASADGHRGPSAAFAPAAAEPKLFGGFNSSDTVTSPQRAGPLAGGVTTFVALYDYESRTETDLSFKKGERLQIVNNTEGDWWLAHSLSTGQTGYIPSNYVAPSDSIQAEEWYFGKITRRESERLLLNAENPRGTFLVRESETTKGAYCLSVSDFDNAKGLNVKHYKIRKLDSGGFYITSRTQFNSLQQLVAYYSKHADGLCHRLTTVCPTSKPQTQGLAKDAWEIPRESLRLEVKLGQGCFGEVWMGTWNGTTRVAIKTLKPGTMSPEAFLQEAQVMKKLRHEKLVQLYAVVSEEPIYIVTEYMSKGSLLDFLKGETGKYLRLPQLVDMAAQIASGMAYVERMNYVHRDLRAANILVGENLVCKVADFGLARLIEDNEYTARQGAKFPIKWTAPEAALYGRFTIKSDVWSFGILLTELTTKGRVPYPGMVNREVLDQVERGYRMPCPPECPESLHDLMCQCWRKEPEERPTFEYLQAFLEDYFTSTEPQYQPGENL
# T6 sequence (P51451 whole entry, the tested form may be a part): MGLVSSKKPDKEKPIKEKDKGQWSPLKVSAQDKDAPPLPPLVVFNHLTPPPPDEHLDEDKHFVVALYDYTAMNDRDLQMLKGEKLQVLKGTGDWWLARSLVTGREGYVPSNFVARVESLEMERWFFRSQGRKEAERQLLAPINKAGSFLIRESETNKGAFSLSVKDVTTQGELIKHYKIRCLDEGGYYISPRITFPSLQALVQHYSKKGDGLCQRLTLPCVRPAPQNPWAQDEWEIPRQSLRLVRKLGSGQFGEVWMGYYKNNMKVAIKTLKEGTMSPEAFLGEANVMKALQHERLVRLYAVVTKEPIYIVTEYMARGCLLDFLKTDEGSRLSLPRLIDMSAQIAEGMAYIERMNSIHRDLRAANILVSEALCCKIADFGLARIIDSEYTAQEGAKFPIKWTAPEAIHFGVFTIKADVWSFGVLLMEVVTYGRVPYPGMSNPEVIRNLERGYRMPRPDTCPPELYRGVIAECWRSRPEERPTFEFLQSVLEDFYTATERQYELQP
# T4 sequence (O43639 whole entry, the tested form may be a part): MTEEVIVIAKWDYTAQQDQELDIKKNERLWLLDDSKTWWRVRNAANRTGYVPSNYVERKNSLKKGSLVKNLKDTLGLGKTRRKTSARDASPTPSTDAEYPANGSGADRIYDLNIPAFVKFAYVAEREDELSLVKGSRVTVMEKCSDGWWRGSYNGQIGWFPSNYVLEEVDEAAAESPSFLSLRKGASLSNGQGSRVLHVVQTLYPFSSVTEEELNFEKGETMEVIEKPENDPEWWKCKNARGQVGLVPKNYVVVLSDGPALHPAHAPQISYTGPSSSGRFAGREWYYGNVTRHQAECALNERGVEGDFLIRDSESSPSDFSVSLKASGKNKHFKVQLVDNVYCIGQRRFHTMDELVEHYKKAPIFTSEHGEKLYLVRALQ
# T7 sequence (Q9BRG2 whole entry, the tested form may be a part): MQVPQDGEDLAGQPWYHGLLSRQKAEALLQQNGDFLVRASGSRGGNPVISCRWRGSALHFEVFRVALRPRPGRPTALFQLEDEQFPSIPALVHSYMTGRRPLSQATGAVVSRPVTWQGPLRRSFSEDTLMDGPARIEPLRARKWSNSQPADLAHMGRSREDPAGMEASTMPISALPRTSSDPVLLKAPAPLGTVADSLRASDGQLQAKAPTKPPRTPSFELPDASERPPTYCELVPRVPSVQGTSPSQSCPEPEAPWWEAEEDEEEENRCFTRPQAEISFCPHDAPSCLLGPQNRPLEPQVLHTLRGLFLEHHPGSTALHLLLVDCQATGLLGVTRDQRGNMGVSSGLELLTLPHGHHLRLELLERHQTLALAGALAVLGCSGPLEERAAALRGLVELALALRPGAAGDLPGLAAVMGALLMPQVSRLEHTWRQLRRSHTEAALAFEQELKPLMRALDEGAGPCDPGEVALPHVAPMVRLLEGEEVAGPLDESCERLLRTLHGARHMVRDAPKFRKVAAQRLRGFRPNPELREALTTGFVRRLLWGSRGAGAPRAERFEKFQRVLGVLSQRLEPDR
# T8 sequence (O00459 whole entry, the tested form may be a part): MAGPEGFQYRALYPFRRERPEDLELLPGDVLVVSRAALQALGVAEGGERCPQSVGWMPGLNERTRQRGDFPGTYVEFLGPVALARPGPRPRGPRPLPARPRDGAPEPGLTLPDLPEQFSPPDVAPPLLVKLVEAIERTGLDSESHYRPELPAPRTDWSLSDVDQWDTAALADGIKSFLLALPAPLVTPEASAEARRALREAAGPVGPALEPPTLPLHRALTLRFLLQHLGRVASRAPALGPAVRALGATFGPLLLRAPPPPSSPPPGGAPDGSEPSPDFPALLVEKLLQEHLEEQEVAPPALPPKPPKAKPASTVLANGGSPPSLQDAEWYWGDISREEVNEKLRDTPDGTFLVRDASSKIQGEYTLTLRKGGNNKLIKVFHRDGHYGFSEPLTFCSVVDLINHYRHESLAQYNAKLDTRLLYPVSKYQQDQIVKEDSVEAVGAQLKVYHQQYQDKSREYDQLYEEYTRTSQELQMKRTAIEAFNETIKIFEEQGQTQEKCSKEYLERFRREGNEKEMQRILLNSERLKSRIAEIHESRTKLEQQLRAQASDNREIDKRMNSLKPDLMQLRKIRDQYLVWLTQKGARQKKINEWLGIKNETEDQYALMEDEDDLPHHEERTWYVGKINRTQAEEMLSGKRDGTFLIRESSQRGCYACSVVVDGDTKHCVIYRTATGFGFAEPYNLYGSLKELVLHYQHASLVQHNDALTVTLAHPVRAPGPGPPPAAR
# T2 sequence (P07947 whole entry, the tested form may be a part): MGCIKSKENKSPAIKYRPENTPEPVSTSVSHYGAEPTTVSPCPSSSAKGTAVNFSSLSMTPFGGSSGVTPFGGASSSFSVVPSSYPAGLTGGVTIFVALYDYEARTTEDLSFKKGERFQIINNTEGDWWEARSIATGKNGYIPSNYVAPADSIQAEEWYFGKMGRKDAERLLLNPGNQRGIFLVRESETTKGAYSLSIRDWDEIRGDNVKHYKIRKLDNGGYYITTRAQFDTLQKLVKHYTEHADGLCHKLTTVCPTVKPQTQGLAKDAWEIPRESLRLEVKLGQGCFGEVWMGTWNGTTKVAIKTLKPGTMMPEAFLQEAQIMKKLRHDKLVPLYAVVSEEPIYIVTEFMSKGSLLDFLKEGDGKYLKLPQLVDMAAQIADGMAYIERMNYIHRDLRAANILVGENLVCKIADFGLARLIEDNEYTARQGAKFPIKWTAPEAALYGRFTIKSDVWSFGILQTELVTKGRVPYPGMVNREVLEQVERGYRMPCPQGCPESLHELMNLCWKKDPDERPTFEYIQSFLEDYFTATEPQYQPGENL
compound,measurement,setting,value
CC(C)C[C@H](NC(=O)[C@@H]1CCCN1C(=O)[C@H](C)NC(=O)[C@@H](NC(=O)[C@H](Cc1ccc(OP(=O)(O)O)cc1)NC(=O)CNC(=O)[C@H](CC(=O)O)NC(=O)[C@@H](NC(=O)[C@@H](N)CCC(=O)O)[C@@H](C)O)C(C)C)C(=O)N[C@H](C(=O)N[C@@H](CS)C(=O)N[C@@H](CO)C(=O)N[C@@H](CC(=O)O)C(=O)O)[C@@H](C)O [ErbB2 pY1127],Kd,"[1]; protein PLCG2-N, PM assay replicate # 39337",4.16 µM
same,Kd,"[1]; protein PLCG2-NC, PM assay replicate # 39336",1.60 µM
same,Kd,"[1]; protein PLCG2-NC, PM assay replicate # 39337",0.58 µM
same,Kd,[2]; PM assay replicate # 39336,0.0053 µM
same,Kd,[2]; PM assay replicate # 39337,0.0651 µM
same,Kd,"[3]; protein SYK-C, PM assay replicate # 39336",2.39 µM
same,Kd,"[3]; protein SYK-C, PM assay replicate # 39337",1.92 µM
same,Kd,"[3]; protein SYK-N, PM assay replicate # 39336",2.33 µM
same,Kd,"[3]; protein SYK-N, PM assay replicate # 39337",3.21 µM
same,Kd,"[3]; protein SYK-NC, PM assay replicate # 39336",1.30 µM
same,Kd,"[3]; protein SYK-NC, PM assay replicate # 39337",0.96 µM
same,Kd,[4]; PM assay replicate # 39336,1.56 µM
same,Kd,[4]; PM assay replicate # 39337,0.46 µM
same,Kd,[5]; [9],0.035 µM
same,Kd,[5]; [10],0.38 µM
same,Kd,[5]; [11],0.25 µM
same,Kd,[6]; [9],3.20 µM
same,Kd,[6]; [10],0.46 µM
same,Kd,[6]; [11],2.00 µM
same,Kd,[7]; PM assay replicate # 39336,0.15 µM
same,Kd,[7]; PM assay replicate # 39337,1.15 µM
same,Kd,[8]; PM assay replicate # 39336,0.04 µM
same,Kd,[8]; PM assay replicate # 39337,0.15 µM
